In ChEMBL document CHEMBL1201862, “PubChem BioAssay data set” (2004):
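Test compounds were applied to cells in 96-well plates for 48 hours at 5 doses. GI50 is the concentration that inhibits growth by half.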 Active and inactive are the calls of the source. Rule as the data show it: active = GI50 up to about 1.1 µM and inactive = higher.

What was measured:
Assay in all cases: DTP human tumour cell line panel, 48 h
[1] = system: A549
[2] = system: BT-549
[3] = system: CAKI-1
[4] = system: EKVX
[5] = system: HCT-15
[6] = system: HL-60
[7] = system: Hs-578T
[8] = system: K562
[9] = system: MDA-MB-435
[10] = system: NCI-H23
[11] = system: NCI-H460
[12] = system: NCI/ADR-RES
[13] = system: OVCAR-8
[14] = system: RPMI-8226
[15] = system: SF-295
[16] = system: SK-MEL-5
[17] = system: SN12C
[18] = system: SNB-75
[19] = system: T47D
[20] = system: UACC-257

SMILES	GI50 [1]	GI50 [2]	GI50 [3]	GI50 [4]	GI50 [5] [µM]	GI50 [6]	GI50 [7]	GI50 [8]	GI50 [9]	GI50 [10]	GI50 [11]	GI50 [12]	GI50 [13]	GI50 [14]	GI50 [15]	GI50 [16]	GI50 [17]	GI50 [18]	GI50 [19]	GI50 [20]
c1ccc(CC(Nc2cccnc2)c2ccccc2)cc1 (stereo not given)	25.6 µM (inactive)	25.2 µM (inactive)	32.4 µM (inactive)	24.2 µM (inactive)	30.3	23.9 µM (inactive)	37.2 µM (inactive)	17.5 µM (inactive)	22.9 µM (inactive)	26.7 µM (inactive)	23 µM (inactive)	21.9 µM (inactive)	28.2 µM (inactive)	17 µM (inactive)	18.5 µM (inactive)	15.7 µM (inactive)	20.6 µM (inactive)	24.9 µM (inactive)	28.1 µM (inactive)	22 µM (inactive)
O=C(O)c1ccc(Nc2nc3cc(C(F)(F)F)ccc3nc2-c2ccccc2)cc1	16.3 µM (inactive)	62.5 µM (inactive)	23.3 µM (inactive)	11.3 µM (inactive)	12.9	27.7 µM (inactive)	17.6 µM (inactive)	16.8 µM (inactive)	31.6 µM (inactive)	19 µM (inactive)	19.1 µM (inactive)	22.5 µM (inactive)	27.9 µM (inactive)	16.4 µM (inactive)	13.4 µM (inactive)	21 µM (inactive)	26 µM (inactive)	18.3 µM (inactive)	7.26 µM (inactive)	35.3 µM (inactive)
Cc1ccc(C)c(NC(=O)C(Cc2c[nH]c3ccccc23)NC(=O)OCc2ccccc2)c1 (stereo not given)	13.2 µM (inactive)	21.8 µM (inactive)	16.4 µM (inactive)	14.5 µM (inactive)	20.9	3 µM (inactive)	58.7 µM (inactive)	12.7 µM (inactive)	21.9 µM (inactive)	21.3 µM (inactive)	13.7 µM (inactive)	11.1 µM (inactive)	17.5 µM (inactive)	12 µM (inactive)	25.8 µM (inactive)	10.8 µM (inactive)	24.7 µM (inactive)	11.3 µM (inactive)	9.18 µM (inactive)	10.6 µM (inactive)
CCOC(=O)C1(Cc2ccccc2)CCN(C(=O)c2ccccc2)C2C1C2(Cl)Cl (stereo not given)	30.1 µM (inactive)	25.2 µM (inactive)	24.3 µM (inactive)	19.3 µM (inactive)	27.8	12.2 µM (inactive)	26.7 µM (inactive)	27 µM (inactive)	21.1 µM (inactive)	23.5 µM (inactive)	16.8 µM (inactive)	21.3 µM (inactive)	28.3 µM (inactive)	13.2 µM (inactive)	23.3 µM (inactive)	15.9 µM (inactive)	16.4 µM (inactive)	23.1 µM (inactive)	14.1 µM (inactive)	15.2 µM (inactive)
Nc1n[n+]([O-])c2cc([N+](=O)[O-])ccc2[n+]1[O-]	18.9 µM (inactive)	18.1 µM (inactive)	4.33 µM (inactive)	> 10 µM (inactive)	3.14	2.2 µM (inactive)	11 µM (inactive)	2.14 µM (inactive)	1.75 µM (inactive)	13.8 µM (inactive)	3.31 µM (inactive)	4.36 µM (inactive)	3.44 µM (inactive)	2.11 µM (inactive)	10.4 µM (inactive)	7.71 µM (inactive)	5.14 µM (inactive)	26.7 µM (inactive)	3.95 µM (inactive)	13.3 µM (inactive)
CC(=O)Oc1ccc2ccc(=O)oc2c1OC(C)=O	30.1 µM (inactive)	40 µM (inactive)	43.6 µM (inactive)	67.8 µM (inactive)	11.6	17.1 µM (inactive)	61.9 µM (inactive)	41.9 µM (inactive)	39.1 µM (inactive)	32 µM (inactive)	14.9 µM (inactive)	50.6 µM (inactive)	35.4 µM (inactive)	28.4 µM (inactive)	41.5 µM (inactive)	27.2 µM (inactive)	19 µM (inactive)	66.5 µM (inactive)	82.4 µM (inactive)	> 100 µM (inactive)
CC(C)(C)c1cc(C(C)(C)C)c(SC2OC(CO)C(O)C(O)C2O)c(O)c1O (stereo not given)	3.84 µM (inactive)	10.6 µM (inactive)	17.9 µM (inactive)	10.8 µM (inactive)	4.54	3.27 µM (inactive)	3.22 µM (inactive)	2.93 µM (inactive)	4.94 µM (inactive)	4.42 µM (inactive)	3.24 µM (inactive)	10.3 µM (inactive)	7.62 µM (inactive)	15.1 µM (inactive)	8.39 µM (inactive)	5.57 µM (inactive)	10.8 µM (inactive)	1.55 µM (inactive)	17.6 µM (inactive)	20.9 µM (inactive)
c1ccc2sc(SSSc3nc4ccccc4s3)nc2c1	> 100 µM (inactive)	> 100 µM (inactive)	> 100 µM (inactive)	> 100 µM (inactive)	27.7	49.2 µM (inactive)	> 100 µM (inactive)	> 100 µM (inactive)	> 100 µM (inactive)	> 100 µM (inactive)	44.7 µM (inactive)	> 100 µM (inactive)	55.6 µM (inactive)	> 100 µM (inactive)	> 100 µM (inactive)	> 100 µM (inactive)	> 100 µM (inactive)	> 100 µM (inactive)	32 µM (inactive)	49.8 µM (inactive)
c1ccc(CCCN2C3CCC2CN(CCOC(c2ccccc2)c2ccccc2)C3)cc1	13.3 µM (inactive)	12.4 µM (inactive)	11.3 µM (inactive)	7.46 µM (inactive)	4.72	5.69 µM (inactive)	13.9 µM (inactive)	3.91 µM (inactive)	12.4 µM (inactive)	11.1 µM (inactive)	8.75 µM (inactive)	8.17 µM (inactive)	11.4 µM (inactive)	3.11 µM (inactive)	12.2 µM (inactive)	3.3 µM (inactive)	12.1 µM (inactive)	5.41 µM (inactive)	3.24 µM (inactive)	8.49 µM (inactive)
C=C(CCC/C(C)=C/C=C/[C@]1(C)CCCc2ccoc21)CC(=O)O	> 100 µM (inactive)	79.1 µM (inactive)	> 100 µM (inactive)	> 100 µM (inactive)	98.9	43.6 µM (inactive)	50.5 µM (inactive)	84.3 µM (inactive)	> 100 µM (inactive)	> 100 µM (inactive)	> 100 µM (inactive)	> 100 µM (inactive)	> 100 µM (inactive)	54.2 µM (inactive)	> 100 µM (inactive)	> 100 µM (inactive)	> 100 µM (inactive)	> 100 µM (inactive)	> 100 µM (inactive)	> 100 µM (inactive)
O=C(Nc1ccccc1)OCCN=C1c2ccccc2CCc2ccccc21	17.5 µM (inactive)	21 µM (inactive)	18.5 µM (inactive)	33.2 µM (inactive)	15.7	13.8 µM (inactive)	18.5 µM (inactive)	15.1 µM (inactive)	22.6 µM (inactive)	55.2 µM (inactive)	21.4 µM (inactive)	19.7 µM (inactive)	31.5 µM (inactive)	12.8 µM (inactive)	15.5 µM (inactive)	13.4 µM (inactive)	17.3 µM (inactive)	11.9 µM (inactive)	15.3 µM (inactive)	23.1 µM (inactive)
CC[N+]1(C)CCC(O)(/C=C/c2ccc(OC)cc2)C(C(=O)/C=C/c2ccc(OC)cc2)C1 (stereo not given)	23.3 µM (inactive)	20.1 µM (inactive)	1.88 µM (inactive)	28.6 µM (inactive)	9.98	1.52 µM (inactive)	11.7 µM (inactive)	2.06 µM (inactive)	12.5 µM (inactive)	16.2 µM (inactive)	9.53 µM (inactive)	27.1 µM (inactive)	23.3 µM (inactive)	0.252 µM (active)	18.6 µM (inactive)	14.7 µM (inactive)	21.3 µM (inactive)	18.9 µM (inactive)	5.86 µM (inactive)	17.4 µM (inactive)
OC1CCC(C2C3CCCCC3C3CCCCC3C2C2CCC(O)CC2)CC1 (stereo not given)	4.18 µM (inactive)	3.89 µM (inactive)	3.62 µM (inactive)	9.89 µM (inactive)	2.49	4.13 µM (inactive)	7.28 µM (inactive)	4.69 µM (inactive)	4.19 µM (inactive)	3.08 µM (inactive)	2.96 µM (inactive)	4.58 µM (inactive)	3.72 µM (inactive)	5.53 µM (inactive)	4.28 µM (inactive)	10.4 µM (inactive)	5.13 µM (inactive)	5.38 µM (inactive)	5.26 µM (inactive)	13.6 µM (inactive)
Oc1cccc2cc(Br)cnc12	5.97 µM (inactive)	28.1 µM (inactive)	24.5 µM (inactive)	5.14 µM (inactive)	4.43	1.05 µM (active)	27.9 µM (inactive)	3.21 µM (inactive)	14.1 µM (inactive)	5.92 µM (inactive)	5.89 µM (inactive)	3.68 µM (inactive)	3.45 µM (inactive)	3.49 µM (inactive)	6.15 µM (inactive)	6.5 µM (inactive)	14.9 µM (inactive)	18 µM (inactive)	4.3 µM (inactive)	4.78 µM (inactive)
